Read-outs that look alike come from different tables or passages of the source.

For data set [1] the following is noted: rat.
In data set [2] the target is T1, COX-2 (Mus musculus, UniProt Q05769).
T1 sequence (Q05769 18-604): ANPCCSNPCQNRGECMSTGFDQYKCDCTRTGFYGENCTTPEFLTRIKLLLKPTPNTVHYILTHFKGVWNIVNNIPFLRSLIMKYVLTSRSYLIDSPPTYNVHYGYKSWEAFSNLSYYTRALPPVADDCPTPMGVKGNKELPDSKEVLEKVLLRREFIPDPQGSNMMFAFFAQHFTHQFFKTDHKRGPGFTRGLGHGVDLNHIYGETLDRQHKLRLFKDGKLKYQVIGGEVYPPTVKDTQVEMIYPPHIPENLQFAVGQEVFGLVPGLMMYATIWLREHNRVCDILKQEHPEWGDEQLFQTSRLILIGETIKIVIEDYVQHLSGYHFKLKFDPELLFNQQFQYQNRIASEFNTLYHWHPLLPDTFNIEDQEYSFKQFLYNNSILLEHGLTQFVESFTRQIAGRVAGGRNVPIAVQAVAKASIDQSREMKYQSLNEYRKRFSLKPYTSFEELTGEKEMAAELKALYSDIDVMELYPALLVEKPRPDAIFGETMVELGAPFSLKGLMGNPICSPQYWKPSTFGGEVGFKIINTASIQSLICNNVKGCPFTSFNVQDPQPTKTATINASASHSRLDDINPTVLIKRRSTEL
As to conditions: 3 μM inhibitor; RAW264.7 cells activated with LPS (1 μg/mL) and IFN-γ (10 units/mL), AEA 20 μM.

`CCCCCC(=O)CCC1C(O)CC(=O)C1C/C=C\CCCC(=O)NCCO` (centres unmarked) [13,14-dihydro-15-keto-PGE2-EA]: the “detection at 2 hours post-dosing” value in data set [1] (in vivo, iv, 2 mg/kg) is on record as “routinely detected”. `CCCCC[C@H](O)/C=C/[C@H]1[C@H](O)CC(=O)[C@@H]1C/C=C\CCCC(=O)NCCO` [PGE2-EA, prostaglandin E2 ethanolamide]: the “apparent volume of distribution” value in data set [1] (2 mg/kg PGE2-EA IV) was 300 to 400 mL. For the same molecule, the “detection at 2 hours post-dosing” value in data set [1] (2 mg/kg PGE2-EA IV, 2 hours post-dosing) is “routinely detected”. Besides, the calculated plasma half-life in data set [1] (2 mg/kg PGE2-EA IV, n=3) was 6.33 ± 0.833 min. `COc1ccc2c(c1)c(CC(=O)NCCc1ccccc1)c(C)n2C(=O)c1ccc(Cl)cc1` [indomethacin phenethylamide, 2-[1-(4-chlorobenzoyl)-5-methoxy-2-methyl-1H-indol-3-yl]-N-phenethylacetamide]: the PGD2-EA biosynthesis result in data set [2] is listed as “inhibited”.
